The results in this text go back to patent publication US8765696B2, “Steroid compound” (Mikasa Seiyaku Co., Ltd., priority 2009, dated 2014).

Series [1] has as its system croton oil-induced ear edema. Nature of the series: Test for croton oil-induced ear edema. The class given is in vivo. The conditions noted are these: rat right auricle; for Edema suppression rate of 6 hours after administration of inflammatory agent (%): 6 hours after croton oil; for Edema suppression rate of 24 hours after administration of inflammatory agent (%): 24 hours after croton oil. How it is done:
Croton oil ear edema test, which is a representative model for dermatitis, was used to study the pharmacological effect of compounds of the present invention.
Five individuals/group of rats of 5 weeks old (body weight, 128 g to 169 g) were used. One day before the test, the thickness of the right ear was measured under ether anesthesia using a dial thickness gauge, to obtain the Pre value. On the day of the test, 20 mg each of the ointments to be tested, which had been prepared to have various concentrations in white vaseline, was applied to the right auricle (both sides) of each rat, and a collar was then placed around the neck of the rat to prevent contacting/scratching and removal of the drug. Two hours later, the ointment was wiped off under ether anesthesia using absorbent cotton, and 0.1 mL of 5% croton oil (croton oil:ether:pyridine:distilled water=1:14:4:1) solution was applied dropwise to the both sides of the auricle while drying the solution with a drier (air blow), to induce ear edema. Six and 24 hours after the induction of the edema, the thickness of the right auricle was measured under ether anesthesia, and the edema rate and the edema suppression rate were calculated according to the equations below, which suppression rate is shown in Table 1.

Series [2] deals with croton oil-induced granuloma. Nature of the series: Test for croton oil-induced granuloma (air pouch exudate and thymus weight). Particulars: male Wistar rats, 7 days, vs control group. The class given is in vivo, rat. The source says: Using the croton oil granuloma test, which is a test method with which the local anti-inflammatory action and the systemic side effect can be evaluated at the same time, the pharmacological effect and the systemic side effect of the compounds of the present invention were studied.
Five individuals/group of male Wistar rats having body weights of 180 to 225 g were used, and hair on the back of these rats was shaved with a clipper under ether anesthesia, followed by preparing an air pouch by subcutaneous injection of 20 mL of air at the back. On the next day, 1 mL of cottonseed oil containing 1% croton oil was administered to the pouch. Each test drug was suspended in the croton oil-containing cottonseed oil before administration. Seven days later, blood was collected from abdominal aorta under ether anesthesia, and exudate in the pouch was collected and its fluid amount was measured. Further, the thymus was removed, and its weight was measured. The weight of the exudate and the weight of the thymus are shown in Table 2 as the suppression rate and the atrophy rate (%) with respect to those of the control group.

The test system of series [3] is DNCB-induced dermatitis. Nature of the series: Test for DNCB-induced dermatitis (skin thickness and thymus weight). The class given is in vivo. Particulars: rat, 0.1 mL once per day, 6 times. The method, then: The DNCB-induced dermatitis test, which is a representative model for allergic dermatitis, was used to study the pharmacological effect of the compound of the present invention.
Abdominal hair of rats (body weight, 205 to 230 g) under isoflurane anesthesia was shaved with an electric clipper and a shaver, and a test region having a size of 3 cm×4 cm was prepared, followed by applying 0.4 mL of 1% DNCB/acetone solution to the inside of the region, to carry out sensitization. Two weeks later, 1 mL of 1% DNCB/acetone solution was applied to the inside of the region to cause induction, and 4 days thereafter, reinduction was carried out. Two days after the reinduction, the skin was removed from the test region, and 5 predetermined positions were punched out using a punch having a diameter of 12 mm, followed by measuring the skin thickness using a dial thickness gauge. Further, to investigate the influence of side effects, the thymus was removed to measure its weight. Application of the test drug was carried out 4 hours after the first dermatitis induction such that 0.1 mL of the ointment is uniformly applied over the test region. Thereafter, the test drug was applied once per day, a total of 6 times until the next day of the reinduction (the day before removal of the skin). The skin thickness and the weight of the thymus are shown in Table 3 as the suppression rate and the atrophy rate (%) relative to those of the control group.

Series [4] is described as follows: Amount of production of active metabolite in inflamed skin and non-inflamed skin. The class given is in vivo. The conditions noted are these: hairless rat, 0.1 mL of 0.1% ointment, LC/MS/MS, Mean ± S.D. The source says: The compounds of the present invention have the advantageous feature that they show the pharmacological effect after being metabolized to an active metabolite (des-ciclesonide) at the site of inflammation. The amount of the active metabolite produced when the compound of the present invention was applied to inflamed skin (skin whose dermatitis was induced by DNCB) or non-inflamed skin (normal skin) was compared.
Using, as the test region, an area of 3 cm×4 cm on the abdomen of a hairless rat of 9 weeks old, 0.4 mL of 1% DNCB/acetone solution was applied to the inside of the region under isoflurane anesthesia, to carry out sensitization. Two weeks later, 1 mL of 1% DNCB/acetone solution was applied to the inside of the region to cause induction, and, 48 hours thereafter, 0.1 mL of a test drug (0.1% ointment) was uniformly applied to the test region. The skin was removed 48 hours after the beginning of the application of the test drug. On the other hand, the test drug was also applied to a normal animal which had not been subjected to the sensitization and the induction, and the skin was removed 48 hours later. […] After centrifugation (10,000 g, 4° C., 5 min.), the centrifugal supernatant was subjected to quantification of the amount of the active metabolite (des-ciclesonide) using LC/MS/MS. […]

Setting [5] is: drug concentration 0.01% ointment.
Where [6] appears, read: drug concentration 0.10% ointment.

For the compound `CC(=O)OCC1OC(OCC(=O)C23OC(C4CCCCC4)OC2CC2C4CCC5=CC(=O)C=CC5(C)C4C(O)CC23C)C(OC(C)=O)C(OC(C)=O)C1OC(C)=O` (centres unmarked) [Compound 3], the “Edema suppression rate of 6 hours after administration of inflammatory agent (%)” value in series [1] (ointment concentration 0.001%) is listed as 50.3%; in series [1] (ointment concentration 0.01%) it was 46.1%; in series [1] (ointment concentration 0.1%), 51.7%. The “Edema suppression rate of 24 hours after administration of inflammatory agent (%)” value came out at 48.1% in series [1] (ointment concentration 0.001%), 58.0% in series [1] (ointment concentration 0.01%) and 56.0% in series [1] (ointment concentration 0.1%). The “Rate of exudates suppression (pharmacological effects)” value is 7.9% in series [2] (dose 0.001 mg/rat into pouch), 41.6% in series [2] (dose 0.01 mg/rat into pouch), 92.7% in series [2] (dose 0.1 mg/rat into pouch) and 96.3% in series [2] (dose 1 mg/rat into pouch). Further, the “Rate of thymus atrophy (systemic side effects)” value worked out at 0.0% in series [2] (dose 0.001 mg/rat into pouch), 0.0% in series [2] (dose 0.01 mg/rat into pouch), 0.0% in series [2] (dose 0.1 mg/rat into pouch) and 2.4% in series [2] (dose 1 mg/rat into pouch). Further, the entries for the “Rate of Skin thickness suppression (pharmacological effects) (%)” value in series [3] (setting [5]) and in series [3] (setting [6]) were 46.1% and 60.5%, respectively. Besides, the “Rate of thymus atrophy (systemic side effects) (%)” value in series [3] (setting [5]) and in series [3] (setting [6]) was 0.0% in each case. For the same compound, the “Drug concentration of active metabolite (Compound C), 48 hours after test drug were applied once” value was 1272 ± 276 (ng/g) in series [4] (DNCB-induced dermatitis skin) and 119 ± 48 (ng/g) in series [4] (non-inflamed skin (normal skin)).
